Source: US3973021A, “2-[2-(5-Nitro-2-furyl)vinyl]-4-(phydroxyanilino)quinazoline as a bactericide” (Diamond Shamrock Corporation, priority 1975, dated 1976)

Columns and labels:
[1] = system: Escherichia coli; assay: Bactericide test (agar streak, growth inhibition rated 0/50/100); type: cell-based
From the text: (§1) Test formulations were examined for bactericidal and/or bacteriostatic activity against the test organisms shown in Tables A and B. These organisms were chosen as being representative of commercially important pathogens affecting animal agriculture. The antibiotic chlortetracycline was chosen as a positive control, since it has a broad spectrum of activity against a large number of organisms, and its activity can be used for comparative purposes.
(§2) Basic test formulations of the product of Examples I, II, III, and of chlortetracycline were prepared by dissolving 16 mg (0.016 g) in 2.0 ml of stock emulsifier solution (0.25% Triton X-155 in acetone by volume) and making each solution up to 50 ml with deionized water. The concentration of the test compound in the basic formulation was 320 ppm. Lower concentrations of the test compound were obtained by diluting the basic formulation with a 4% solution of the stock emulsifier in deionized water so that each dilution in the series differed only in test compound content.
(§3) Nutrient-tryptic soy agar (NTA) consisting of 2.0% Difco Bactoagar 0.8% nutrient broth (Difco), and 0.5% tryptic soy broth (Difco) was prepared and sterilized by autoclaving. A 2 ml aliquot of each test formulation was added to 8 ml of molten NTA. This mixture was then plated in a sterile polystyrene petri dish (100 × 15 mm). After the agar was set, suspensions of each of the test organisms were simultaneously streaked onto the surface of the agar. The inoculated plates were incubated for 48 hr. at 28°C. The inhibition of growth of each organism was rated by visual comparison with the organism developing on non-treated agar. Growth inhibition reported as percent control was rated in three categories as follows: 0% control, growth equivalent to that on non-treated agar; 50% control, sparse development and separated colonies; 100% control, no visible growth or development of colonies.
(§4) Test formulations of the product of Example IV were examined for bactericidal and/or bacteriostatic activity against the test organisms shown in Table B using the Bactericide Test described in Example V. The inhibition of organism growth with each diluted test formulation was rated visually by comparison with the organism developing on a non-treated control agar plate. Growth inhibition reported as percent control was rated in three categories as follows: 0% control, growth equivalent to that on non-treated agar; 50% control is sparse development and separated colonies; and 100% control, development of individual colonies was not apparent.

[2] = system: Salmonella cholerasuis; assay: as above; type: cell-based
From the text: as §1, §2, §3, §4

[3] = system: Salmonella gallinarum; assay: as above; type: cell-based; conditions: Salmonella enterica
From the text: as §1, §2, §3, §4

[4] = system: Staphylococcus aureus; assay: as above; type: cell-based
From the text: as §1, §2, §3, §4

[5] = system: Streptococcus faecalis; assay: as above; type: cell-based; conditions: Enterococcus faecalis
From the text: as §1, §2, §3, §4

[6] = system: Bordetella bronchiseptica; assay: as above; type: cell-based
From the text: as §1, §2, §3

[7] = system: Erysipelothrix rhusiopathiae; assay: as above; type: cell-based
From the text: as §1, §2, §3

[8] = system: Salmonella typhimurium; assay: as above; type: cell-based; conditions: Salmonella enterica
From the text: as §1, §2, §3

[9] = system: Streptococcus agalactiae; assay: as above; type: cell-based
From the text: as §1, §2, §3

[10] = system: Streptococcus group E; assay: as above; type: cell-based
From the text: as §1, §2, §3

[11] = system: Vibrio coli; assay: as above; type: cell-based; conditions: Campylobacter coli
From the text: as §1, §2, §3

[12] = Example XII: 4 week chick feeding test, first set (Table VI); type: in vivo, broiler cross chicks
From the text: (§5) This example compares growth promotion activity of the product of Example I with other growth promotants at a concentration of 25 g/T in the Basal Ration described in Example VII. The other growth promotants include the product described in Example I of U.S. Pat. No. 3,542,784 -- Burch and quinoxaline-1,4-dioxide. Day old broiler cross chicks were weight equalized into groups of 8 chicks each, and four replicates of 8 chicks each were fed the experimental rations over a 4 week period.
The growth promotion tests described in Example X were repeated with the additional testing the products of Examples II and III.

[13] = Example XII: 4 week chick feeding test, repeat with five replicates (Table VII); type: in vivo, broiler cross chicks; conditions: for Average 4 Week Performance: Feed Efficiency / Average 4 Week Performance: Gain / Improved Response Over Basal Ration: Feed Efficiency / Improved Response Over Basal Ration: Gain: 25g/T
[14] = Example X: 4 week chick feeding test, 25 g/T; type: in vivo, broiler cross chicks; conditions: for growth rate and feed efficiency response (in words): 25 g/T, Table IV
From the text: as §5

[15] = Example XI: 4 week chick feeding test, five replicates; type: in vivo, broiler cross chicks; conditions: Table V
From the text: as §5
The growth promotion tests described in Example X were repeated with the exception that fives replicates of 8 chicks each were fed the formulations described in Table V for four weeks.

O=[N+]([O-])c1ccc(C=Cc2nc(Nc3ccccc3O)c3ccccc3n2)o1 [Example III, 2-[2-(5-nitro-furyl)vinyl]-4-(o-hydroxyanilino)quinazoline]
inhibition at 0.125 ppm ([1]; 0.125 ppm): 0%
inhibition at 0.25 ppm ([1]; 0.25 ppm): 0%
inhibition at 0.5 ppm ([1]; 0.5 ppm): 0%
inhibition at 1 ppm ([1]; 1 ppm): 0%
inhibition at 2 ppm ([1]; 2 ppm): 0%
inhibition at 4 ppm ([1]; 4 ppm): 0%
inhibition at 8 ppm ([1]; 8 ppm): 0%
inhibition at 16 ppm ([1]; 16 ppm): 0%
inhibition at 32 ppm ([1]; 32 ppm): 0%
inhibition at 64 ppm ([1]; 64 ppm): 0%
inhibition at 0.125 ppm ([2]; 0.125 ppm): 0%
inhibition at 0.25 ppm ([2]; 0.25 ppm): 0%
inhibition at 0.5 ppm ([2]; 0.5 ppm): 0%
inhibition at 1 ppm ([2]; 1 ppm): 0%
inhibition at 2 ppm ([2]; 2 ppm): 0%
inhibition at 4 ppm ([2]; 4 ppm): 50%
inhibition at 8 ppm ([2]; 8 ppm): 50%
inhibition at 16 ppm ([2]; 16 ppm): 100%
inhibition at 32 ppm ([2]; 32 ppm): 100%
inhibition at 64 ppm ([2]; 64 ppm): 100%
inhibition at 0.125 ppm ([3]; 0.125 ppm): 0%
inhibition at 0.25 ppm ([3]; 0.25 ppm): 0%
inhibition at 0.5 ppm ([3]; 0.5 ppm): 0%
inhibition at 1 ppm ([3]; 1 ppm): 0%
inhibition at 2 ppm ([3]; 2 ppm): 0%
inhibition at 4 ppm ([3]; 4 ppm): 50%
inhibition at 8 ppm ([3]; 8 ppm): 50%
inhibition at 16 ppm ([3]; 16 ppm): 100%
inhibition at 32 ppm ([3]; 32 ppm): 100%
inhibition at 64 ppm ([3]; 64 ppm): 100%
inhibition at 0.125 ppm ([4]; 0.125 ppm): 0%
inhibition at 0.25 ppm ([4]; 0.25 ppm): 0%
inhibition at 0.5 ppm ([4]; 0.5 ppm): 0%
inhibition at 1 ppm ([4]; 1 ppm): 0%
inhibition at 2 ppm ([4]; 2 ppm): 0%
inhibition at 4 ppm ([4]; 4 ppm): 0%
inhibition at 8 ppm ([4]; 8 ppm): 0%
inhibition at 16 ppm ([4]; 16 ppm): 0%
inhibition at 32 ppm ([4]; 32 ppm): 0%
inhibition at 64 ppm ([4]; 64 ppm): 0%
inhibition at 0.125 ppm ([5]; 0.125 ppm): 0%
inhibition at 0.25 ppm ([5]; 0.25 ppm): 0%
inhibition at 0.5 ppm ([5]; 0.5 ppm): 50%
inhibition at 1 ppm ([5]; 1 ppm): 100%
inhibition at 2 ppm ([5]; 2 ppm): 100%
inhibition at 4 ppm ([5]; 4 ppm): 100%
inhibition at 8 ppm ([5]; 8 ppm): 100%
inhibition at 16 ppm ([5]; 16 ppm): 100%
inhibition at 32 ppm ([5]; 32 ppm): 100%
inhibition at 64 ppm ([5]; 64 ppm): 100%
inhibition at 0.125 ppm ([6]; 0.125 ppm): 100%
inhibition at 0.25 ppm ([6]; 0.25 ppm): 100%
inhibition at 0.5 ppm ([6]; 0.5 ppm): 100%
inhibition at 1 ppm ([6]; 1 ppm): 100%
inhibition at 2 ppm ([6]; 2 ppm): 100%
inhibition at 4 ppm ([6]; 4 ppm): 100%
inhibition at 8 ppm ([6]; 8 ppm): 100%
inhibition at 16 ppm ([6]; 16 ppm): 100%
inhibition at 32 ppm ([6]; 32 ppm): 100%
inhibition at 64 ppm ([6]; 64 ppm): 100%
inhibition at 0.125 ppm ([7]; 0.125 ppm): 100%
inhibition at 0.25 ppm ([7]; 0.25 ppm): 100%
inhibition at 0.5 ppm ([7]; 0.5 ppm): 100%
inhibition at 1 ppm ([7]; 1 ppm): 100%
inhibition at 2 ppm ([7]; 2 ppm): 100%
inhibition at 4 ppm ([7]; 4 ppm): 100%
inhibition at 8 ppm ([7]; 8 ppm): 100%
inhibition at 16 ppm ([7]; 16 ppm): 100%
inhibition at 32 ppm ([7]; 32 ppm): 100%
inhibition at 64 ppm ([7]; 64 ppm): 100%
inhibition at 0.125 ppm ([8]; 0.125 ppm): 0%
inhibition at 0.25 ppm ([8]; 0.25 ppm): 0%
inhibition at 0.5 ppm ([8]; 0.5 ppm): 0%
inhibition at 1 ppm ([8]; 1 ppm): 0%
inhibition at 2 ppm ([8]; 2 ppm): 0%
inhibition at 4 ppm ([8]; 4 ppm): 0%
inhibition at 8 ppm ([8]; 8 ppm): 0%
inhibition at 16 ppm ([8]; 16 ppm): 0%
inhibition at 32 ppm ([8]; 32 ppm): 0%
inhibition at 64 ppm ([8]; 64 ppm): 0%
inhibition at 0.125 ppm ([9]; 0.125 ppm): 100%
inhibition at 0.25 ppm ([9]; 0.25 ppm): 100%
inhibition at 0.5 ppm ([9]; 0.5 ppm): 100%
inhibition at 1 ppm ([9]; 1 ppm): 100%
inhibition at 2 ppm ([9]; 2 ppm): 100%
inhibition at 4 ppm ([9]; 4 ppm): 100%
inhibition at 8 ppm ([9]; 8 ppm): 100%
inhibition at 16 ppm ([9]; 16 ppm): 100%
inhibition at 32 ppm ([9]; 32 ppm): 100%
inhibition at 64 ppm ([9]; 64 ppm): 100%
inhibition at 0.125 ppm ([10]; 0.125 ppm): 100%
inhibition at 0.25 ppm ([10]; 0.25 ppm): 100%
inhibition at 0.5 ppm ([10]; 0.5 ppm): 100%
inhibition at 1 ppm ([10]; 1 ppm): 100%
inhibition at 2 ppm ([10]; 2 ppm): 100%
inhibition at 4 ppm ([10]; 4 ppm): 100%
inhibition at 8 ppm ([10]; 8 ppm): 100%
inhibition at 16 ppm ([10]; 16 ppm): 100%
inhibition at 32 ppm ([10]; 32 ppm): 100%
inhibition at 64 ppm ([10]; 64 ppm): 100%
inhibition at 0.125 ppm ([11]; 0.125 ppm): 100%
inhibition at 0.25 ppm ([11]; 0.25 ppm): 100%
inhibition at 0.5 ppm ([11]; 0.5 ppm): 100%
inhibition at 1 ppm ([11]; 1 ppm): 100%
inhibition at 2 ppm ([11]; 2 ppm): 100%
inhibition at 4 ppm ([11]; 4 ppm): 100%
inhibition at 8 ppm ([11]; 8 ppm): 100%
inhibition at 16 ppm ([11]; 16 ppm): 100%
inhibition at 32 ppm ([11]; 32 ppm): 100%
inhibition at 64 ppm ([11]; 64 ppm): 100%
Average 4 Week Performance: Feed Efficiency ([12]; 25g/T): 1.597
Average 4 Week Performance: Gain ([12]; 25g/T): 766.9 g
Improved Response Over Basal Ration: Feed Efficiency ([12]; 25g/T): +2.3%
Improved Response Over Basal Ration: Gain ([12]; 25g/T): +3.1%
Average 4 Week Performance: Feed Efficiency [13]: 1.669
Average 4 Week Performance: Gain [13]: 723.7 g
Improved Response Over Basal Ration: Feed Efficiency [13]: +6.5%
Improved Response Over Basal Ration: Gain [13]: +6.0%

O=[N+]([O-])c1ccc(-c2nc(Nc3ccc(O)cc3)c3ccccc3n2)o1 [Example III of U.S. 3,542,784 - Burch, 2-(5-nitro-2-furyl)-4-(p-hydroxyaniline)quinazoline, reference compound]
Average 4 Week Performance: Feed Efficiency ([14]; 25g/T): 1.525
Average 4 Week Performance: Gain ([14]; 25g/T): 809.5 g
Improved Response Over Basal Ration: Feed Efficiency ([14]; 25g/T): +1.7%
Improved Response Over Basal Ration: Gain ([14]; 25g/T): +5.8%
growth rate and feed efficiency response (in words) [14]: appeared to give a growth response in this test but with a slight, it any, effect on feed efficiency
growth rate / feed efficiency response (in words) ([12]; Table VI): essentially no effect on growth rate or feed efficiency
Average 4 Week Performance: Feed Efficiency [13]: 1.737
Average 4 Week Performance: Gain [13]: 668.1 g
Improved Response Over Basal Ration: Feed Efficiency [13]: +2.7%
Improved Response Over Basal Ration: Gain [13]: -2.1%
growth rate / feed efficiency response (in words) ([13]; Table VII): essentially no effect on growth rate or feed efficiency

[O-][n+]1cc[n+]([O-])c2ccccc21 [Quinoxaline-1,4-dioxide, quinoxaline-1,4-dioxide]
growth rate and feed efficiency response (in words) [14]: did not have any apparent effect
feed efficiency (in words) [15]: improvement in feed efficiency
growth rate (in words) [15]: questionable effect on growth
